Reference: patent US7119180B2, “2-halogenated derivatives of 5-O-desosaminyl-erythronolide A, their preparation process and their antibiotic use” (Aventis Pharma S.A., priority 1998, dated 2006)

Columns and labels:
Type in all cases: cell-based
[1] = system: Haemophilus Influenzae 351HT3; experiment: Activity on Gram- bacterial strains
Procedure: (§1) Method of Dilutions in Liquid Medium
(§2) A series of tubes were prepared in which the same quantity of nutritive sterile medium was distributed. Increasing quantities of the product to be studied were distributed into each tube and then each tube was seeded with a bacterial strain. After incubation for twenty-four hours in an oven at 37° C., the growth inhibition was evaluated by transillumination, which allowed the minimal inhibitory concentrations (M.I.C.) to be determined, expressed in micrograms/ml.

[2] = system: Haemophilus Influenzae 351CB12; experiment: Activity on Gram- bacterial strains
Procedure: as §1, §2

[3] = system: Haemophilus Influenzae 351CA1; experiment: Activity on Gram- bacterial strains
Procedure: as §1, §2

[4] = system: S. agalactiae 02B1SJ1c; experiment: Method of dilutions in liquid medium (M.I.C.); settings: reading after 24 hours, 37° C.
Procedure: as §2, with “Method of Dilutions in Liquid Medium A series” for “A series”, “in micrograms/ml. The following results were obtained: (reading after 24 hours)” for “in micrograms/ml.”

[5] = system: S. faecium 02D3HT1; experiment: Method of dilutions in liquid medium (M.I.C.); settings: reading after 24 hours, 37° C.
Procedure: as §2, with “Method of Dilutions in Liquid Medium A series” for “A series”, “in micrograms/ml. The following results were obtained: (reading after 24 hours)” for “in micrograms/ml.”

[6] = system: S. pneumoniae 030GR20; experiment: Method of dilutions in liquid medium (M.I.C.); settings: reading after 24 hours, 37° C.
Procedure: as §2, with “Method of Dilutions in Liquid Medium A series” for “A series”, “in micrograms/ml. The following results were obtained: (reading after 24 hours)” for “in micrograms/ml.”

[7] = system: S. aureus 011GO25I; experiment: Method of dilutions in liquid medium (M.I.C.); settings: reading after 24 hours, 37° C.
Procedure: as §2, with “Method of Dilutions in Liquid Medium A series” for “A series”, “in micrograms/ml. The following results were obtained: (reading after 24 hours)” for “in micrograms/ml.”

[8] = system: S. epidermidis 012GO11I; experiment: Method of dilutions in liquid medium (M.I.C.); settings: reading after 24 hours, 37° C.
Procedure: as §2, with “Method of Dilutions in Liquid Medium A series” for “A series”, “in micrograms/ml. The following results were obtained: (reading after 24 hours)” for “in micrograms/ml.”

[9] = system: S. faecalis 02D2UC1; experiment: Method of dilutions in liquid medium (M.I.C.); settings: reading after 24 hours, 37° C.
Procedure: as §2, with “Method of Dilutions in Liquid Medium A series” for “A series”, “in micrograms/ml. The following results were obtained: (reading after 24 hours)” for “in micrograms/ml.”

[10] = system: S. aureus 011UC4; experiment: Method of dilutions in liquid medium (M.I.C.); settings: reading after 24 hours, 37° C.
Procedure: as §2, with “Method of Dilutions in Liquid Medium A series” for “A series”, “in micrograms/ml. The following results were obtained: (reading after 24 hours)” for “in micrograms/ml.”

[11] = system: Streptococcus gr. G 02GOGR5; experiment: Method of dilutions in liquid medium (M.I.C.); settings: reading after 24 hours, 37° C.
Procedure: as §2, with “Method of Dilutions in Liquid Medium A series” for “A series”, “in micrograms/ml. The following results were obtained: (reading after 24 hours)” for “in micrograms/ml.”

[12] = system: S. pneumoniae 032UC1; experiment: Method of dilutions in liquid medium (M.I.C.); settings: reading after 24 hours, 37° C.
Procedure: as §2, with “Method of Dilutions in Liquid Medium A series” for “A series”, “in micrograms/ml. The following results were obtained: (reading after 24 hours)” for “in micrograms/ml.”

[13] = system: S. mitis 02MitCB1; experiment: Method of dilutions in liquid medium (M.I.C.); settings: reading after 24 hours, 37° C.
Procedure: as §2, with “Method of Dilutions in Liquid Medium A series” for “A series”, “in micrograms/ml. The following results were obtained: (reading after 24 hours)” for “in micrograms/ml.”

[14] = system: S. pyogenes 02A1UC1; experiment: Method of dilutions in liquid medium (M.I.C.); settings: reading after 24 hours, 37° C.
Procedure: as §2, with “Method of Dilutions in Liquid Medium A series” for “A series”, “in micrograms/ml. The following results were obtained: (reading after 24 hours)” for “in micrograms/ml.”

[15] = system: S. agalactiae 02B1HT1; experiment: Method of dilutions in liquid medium (M.I.C.); settings: reading after 24 hours, 37° C.
Procedure: as §2, with “Method of Dilutions in Liquid Medium A series” for “A series”, “in micrograms/ml. The following results were obtained: (reading after 24 hours)” for “in micrograms/ml.”

Compound | activity on Gram- bacterial strain [1] | activity on Gram- bacterial strain [2] | activity on Gram- bacterial strain [3] | minimal inhibitory concentrations (M.I.C.) [4] | minimal inhibitory concentrations (M.I.C.) [5] | minimal inhibitory concentrations (M.I.C.) [6] | minimal inhibitory concentrations (M.I.C.) [7] | minimal inhibitory concentrations (M.I.C.) [8] | minimal inhibitory concentrations (M.I.C.) [9] | minimal inhibitory concentrations (M.I.C.) ([10]; S. aureus 011UC4 + 50% serum) | minimal inhibitory concentrations (M.I.C.) ([10]; S. aureus 011UC4) | minimal inhibitory concentrations (M.I.C.) [11] | minimal inhibitory concentrations (M.I.C.) [12] | minimal inhibitory concentrations (M.I.C.) [13] | minimal inhibitory concentrations (M.I.C.) [14] | minimal inhibitory concentrations (M.I.C.) [15]
CC[C@H]1OC(=O)[C@@](C)(F)C(=O)[C@H](C)[C@@H](O[C@@H]2O[C@H](C)C[C@H](N(C)C)[C@H]2O)[C@](C)(OC)C[C@@H](C)C2=NCCN3C(=O)O[C@@]1(C)[C@H]3[C@H]2C (relative stereo) [Example 1, [3 as-(3aR*,4S*,7R*,9S*,10S*,11S*,13S*,15S*,15aS*)]-4-ethyl-7-fluoro-3a,4,10,11,12,13,15,15a-octahydro-11-methoxy-3a,7,9,11,13,15-hexamethyl-10-[[3,4,6-trideoxy-3-(dimethyl-amino)-beta-D-xylo-hexopyranosyl]oxy]-14,1-(nitriloethano)-2H-oxacyclotetradecino[4,3-d]oxazole-2,6,8(9H)-trione] | useful activity | useful activity | useful activity | 1.200 micrograms/ml | # 0.02 micrograms/ml | # 0.02 micrograms/ml | 0.600 micrograms/ml | 0.300 micrograms/ml | 0.040 micrograms/ml | 0.040 micrograms/ml | 0.150 micrograms/ml | 0.040 micrograms/ml | 0.080 micrograms/ml | 0.040 micrograms/ml | 0.040 micrograms/ml | # 0.02 micrograms/ml
(3aS,4R,7S,9R,10R,11R,13R,15R,15aR,18S)-4-ethyl-7-fluoro-3a,4,10,11,12,13,15,15a-octahydro-18-(hydroxymethyl)-11-methoxy-3a,7,9,11,13,15-hexamethyl-10-[[3,4,6-trideoxy-3-(dimethylamino)-beta-D-xylo-hexopyranosyl]oxy]-14,1-(nitriloethano)-2H-oxacyclotetradecino[4,3-d]oxazole-2,6,8(7H,9H)-trione [Example 3] | – | – | – | 0.02 micrograms/ml | 0.02 micrograms/ml | 0.02 micrograms/ml | 0.040 micrograms/ml | 0.150 micrograms/ml | 0.02 micrograms/ml | 0.040 micrograms/ml | 0.040 micrograms/ml | 0.02 micrograms/ml | 0.02 micrograms/ml | 0.02 micrograms/ml | # 0.02 micrograms/ml | 0.02 micrograms/ml
